Data set [1] in a line: Solubility in stimulated intestinal fluid at pH 7 after 3 days. To be noted: simulated intestinal fluid. The format is physicochemical.
Data set [2] in a line: Solubility in stimulated gastric fluid at pH 2 umol after 3 days. Type of data set: physicochemical. To be noted: simulated gastric fluid.

The structures appear in SMILES notation. Converted amounts (≈) assume the structure as drawn.

The solubility is the concentration that dissolves in the medium under given conditions. A high value points to a readily soluble substance. In the case of `NC(=O)c1ccc2[nH]c(-c3ccc(OCCC4CCCCN4Cc4ccccc4)cc3)nc2c1` (stereo not given), the solubility at 72 h is 155 µM (≈ 70.5 µg/mL) in data set [1] and greater than 400 µM in data set [2].

With `CN1CCC(Oc2ccc(-c3nc4cc(C(N)=O)ccc4[nH]3)cc2)CC1`, the solubility at 72 h in data set [1] and in data set [2] was greater than 400 µM each time.

As for `NC(=O)c1ccc2[nH]c(-c3ccc(OCCC4CCN(C(=O)c5ccccc5)CC4)cc3)nc2c1`, the solubility at 72 h in data set [1] and in data set [2] was 3 µM (≈ 1.41 µg/mL) throughout.

Consider `Cc1ccc(CN2CCCCC2CCOc2ccc(-c3nc4cc(C(N)=O)ccc4[nH]3)cc2)cc1` (stereo not given), for which the results for the solubility at 72 h in data set [1] and in data set [2] were 97 µM (≈ 45.5 µg/mL) and greater than 400 µM, respectively.

Turning to `NC(=O)c1ccc2[nH]c(-c3ccc(OCCC4CCN(Cc5ccc(Cl)c(Cl)c5)CC4)cc3)nc2c1`, the figures for the solubility at 72 h in data set [1] and in data set [2] were 15 µM (≈ 7.85 µg/mL) and 13 µM (≈ 6.81 µg/mL), respectively.

Consider `NC(=O)c1ccc2[nH]c(-c3ccc(OCC4CCN(Cc5ccccc5)CC4)cc3)nc2c1`, for which the solubility at 72 h in data set [1] and in data set [2] was greater than 400 µM each time.

On to `NC(=O)c1ccc2[nH]c(-c3ccc(OCCO)cc3)nc2c1`, for which the solubility at 72 h in data set [1] and in data set [2] was greater than 400 µM each time.

As for `NC(=O)c1ccc2[nH]c(-c3ccc(OCC4CCNCC4)cc3)nc2c1`, the solubility at 72 h in data set [1] and in data set [2] was greater than 400 µM throughout.

`NC(=O)c1ccc2[nH]c(-c3ccc(OCCC4CCN(Cc5ccccc5)CC4)cc3)nc2c1`: the solubility at 72 h is 5 µM (≈ 2.27 µg/mL) in data set [1] and 110 µM (≈ 50 µg/mL) in data set [2].

In the case of `Cc1ccc(CN2CCC(CCOc3ccc(-c4nc5cc(C(N)=O)ccc5[nH]4)cc3)CC2)cc1`, the solubility at 72 h in data set [1] is 3 µM (≈ 1.41 µg/mL); in data set [2], 84 µM (≈ 39.4 µg/mL).

`COc1ccc(CN2CCCCC2CCOc2ccc(-c3nc4cc(C(N)=O)ccc4[nH]3)cc2)cc1` (stereo not given): the solubility at 72 h in data set [1] is 84 µM (≈ 40.7 µg/mL); in data set [2], greater than 400 µM.

`NC(=O)c1ccc2[nH]c(-c3ccc(OCC4CCCN(Cc5ccccc5)C4)cc3)nc2c1` (stereo not given): the values for the solubility at 72 h in data set [1] and in data set [2] were 267 µM (≈ 118 µg/mL) and greater than 400 µM, respectively.

Turning to `NC(=O)c1ccc2[nH]c(-c3ccc(OCCC4CCCCN4C(=O)c4ccccc4)cc3)nc2c1` (stereo not given), the solubility at 72 h in data set [1] was 18 µM (≈ 8.43 µg/mL); in data set [2] it was 28 µM (≈ 13.1 µg/mL).

`NC(=O)c1ccc2[nH]c(-c3ccc(OC4CCCNC4)cc3)nc2c1` (stereo not given): the solubility at 72 h in data set [1] and in data set [2] was greater than 400 µM each time.

In the case of `NC(=O)c1ccc2[nH]c(-c3ccc(OCCCO)cc3)nc2c1`, the solubility at 72 h is 7 µM (≈ 2.18 µg/mL) in data set [1] and 185 µM (≈ 57.6 µg/mL) in data set [2].

As for `NC(=O)c1ccc2[nH]c(-c3ccc(OCCC4CCN(Cc5ccc(Cl)cc5)CC4)cc3)nc2c1`, the results for the solubility at 72 h in data set [1] and in data set [2] were 2 µM (≈ 0.978 µg/mL) and 179 µM (≈ 87.5 µg/mL), respectively.

On to `COc1ccc(CN2CCC(CCOc3ccc(-c4nc5cc(C(N)=O)ccc5[nH]4)cc3)CC2)cc1`, for which the solubility at 72 h was less than 1 µM in data set [1] and greater than 400 µM in data set [2].

Turning to `NC(=O)c1ccc2[nH]c(-c3ccc(OCCC4CCCCN4Cc4ccc(Cl)cc4)cc3)nc2c1` (stereo not given), the figures for the solubility at 72 h in data set [1] and in data set [2] were 115 µM (≈ 56.2 µg/mL) and greater than 400 µM, respectively.

For `CC(=O)N1CCC(CCOc2ccc(-c3nc4cc(C(N)=O)ccc4[nH]3)cc2)CC1`, the solubility at 72 h was 2 µM (≈ 0.813 µg/mL) in data set [1] and 87 µM (≈ 35.4 µg/mL) in data set [2].

As for `NC(=O)c1ccc2[nH]c(-c3ccc(OC4CCC(O)C4)cc3)nc2c1` (stereo not given), the solubility at 72 h was 139 µM (≈ 46.9 µg/mL) in data set [1] and greater than 400 µM in data set [2].

Turning to `CC(=O)N1CCCCC1CCOc1ccc(-c2nc3cc(C(N)=O)ccc3[nH]2)cc1` (stereo not given), the solubility at 72 h is 193 µM (≈ 78.5 µg/mL) in data set [1] and greater than 400 µM in data set [2].

Take `NC(=O)c1ccc2[nH]c(-c3ccc(OCCC4CCCCN4Cc4ccc(Cl)c(Cl)c4)cc3)nc2c1` (stereo not given): the solubility at 72 h is 229 µM (≈ 120 µg/mL) in data set [1] and 39 µM (≈ 20.4 µg/mL) in data set [2].

`NC(=O)c1ccc2[nH]c(-c3ccc(OCCCN4CCCCC4)cc3)nc2c1`: the solubility at 72 h in data set [1] and in data set [2] was greater than 400 µM in each case.

On to `CN(C)CCCOc1ccc(-c2nc3cc(C(N)=O)ccc3[nH]2)cc1`, for which the solubility at 72 h in data set [1] and in data set [2] was greater than 400 µM in each case.

As for `NC(=O)c1ccc2[nH]c(-c3ccc(OCCN4CCCCC4)cc3)nc2c1`, the solubility at 72 h in data set [1] and in data set [2] was greater than 400 µM each time.

These data come from ChEMBL document CHEMBL1140567, “2-Aryl benzimidazoles featuring alkyl-linked pendant alcohols and amines as inhibitors of checkpoint kinase Chk2” (Bioorg Med Chem Lett, 2007).
